For the assay, the target named is S. aureus GyrB ATPase (Staphylococcus aureus, UniProt P0A0K8). Put plainly: S. aureus GyrB ATPase inhibition (ammonium molybdate/malachite green phosphate detection). The assay is classed as biochemical. Conditions: compound at 1 μM; inhibition of S. aureus GyrB ATPase; read-out: Percent Inhibition (1 μM). As to the method: S. aureus GyrB ATPase Inhibition Activity: Compounds may be tested for inhibition of S. aureus GyrB ATPase activity using an ammonium molybdate/malachite green-based phosphate detection assay (Lanzetta, P. A., L. J. Alvarez, P. S. Reinach, and O. A. Candia, 1979, 100: 95-97). Assays can be performed in multiwell plates in 30 μl reactions containing: 50 mM Hepes buffer pH 7.5, 75 mM ammonium acetate, 8.0 mM magnesium chloride, 0.5 mM ethylenediaminetetraacetic acid, 5% glycerol, 1.0 mM 1,4-Dithio-DL-threitol, 200 nM bovine serum albumin, 1.0 μg/ml sheared salmon sperm DNA, 250 pM E. coli GyrA, 250 pM S. aureus GyrB, 250 μM ATP, and compound in dimethylsulfoxide. Reactions can be quenched with 30 μl of ammonium molybdate/malachite green detection reagent containing 1.2 mM malachite green hydrochloride, 8.5 mM ammonium molybdate tetrahydrate, and 1 M hydrochloric acid. Plates can be read in an absorbance plate reader at 650 nm and percent inhibition values can be calculated using dimethylsulfoxide (2%)-containing reactions as 0% inhibition and EDTA-containing ([…]) reactions as 100% inhibition controls. An IC50 measurement of compound potency for each compound can be determined from reactions performed in the presence of 10 different compound concentrations.
S. aureus GyrB ATPase, sequence (P0AES4 whole entry): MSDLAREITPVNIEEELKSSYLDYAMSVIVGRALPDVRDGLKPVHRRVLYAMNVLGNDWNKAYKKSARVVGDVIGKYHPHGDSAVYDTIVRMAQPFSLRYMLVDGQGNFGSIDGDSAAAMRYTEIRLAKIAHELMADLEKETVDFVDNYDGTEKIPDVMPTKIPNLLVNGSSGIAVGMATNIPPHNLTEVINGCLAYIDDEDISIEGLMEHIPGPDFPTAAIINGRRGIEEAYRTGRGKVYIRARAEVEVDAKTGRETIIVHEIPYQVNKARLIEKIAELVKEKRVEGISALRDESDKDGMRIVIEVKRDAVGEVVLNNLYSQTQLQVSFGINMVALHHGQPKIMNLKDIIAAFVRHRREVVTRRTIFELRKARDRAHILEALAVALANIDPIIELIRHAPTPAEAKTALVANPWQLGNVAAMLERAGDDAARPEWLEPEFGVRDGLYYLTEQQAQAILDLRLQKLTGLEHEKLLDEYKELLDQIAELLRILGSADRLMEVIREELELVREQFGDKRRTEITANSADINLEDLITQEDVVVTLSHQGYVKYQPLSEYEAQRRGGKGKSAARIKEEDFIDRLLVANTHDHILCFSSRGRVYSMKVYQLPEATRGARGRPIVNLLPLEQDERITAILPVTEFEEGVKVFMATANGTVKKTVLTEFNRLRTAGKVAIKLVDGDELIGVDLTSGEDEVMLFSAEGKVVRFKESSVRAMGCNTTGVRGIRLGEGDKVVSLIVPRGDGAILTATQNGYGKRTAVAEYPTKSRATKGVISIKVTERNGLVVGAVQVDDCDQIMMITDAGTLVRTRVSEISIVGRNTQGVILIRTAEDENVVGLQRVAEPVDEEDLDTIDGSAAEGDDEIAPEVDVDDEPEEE
S. aureus GyrB ATPase, sequence (P0A0K8 whole entry): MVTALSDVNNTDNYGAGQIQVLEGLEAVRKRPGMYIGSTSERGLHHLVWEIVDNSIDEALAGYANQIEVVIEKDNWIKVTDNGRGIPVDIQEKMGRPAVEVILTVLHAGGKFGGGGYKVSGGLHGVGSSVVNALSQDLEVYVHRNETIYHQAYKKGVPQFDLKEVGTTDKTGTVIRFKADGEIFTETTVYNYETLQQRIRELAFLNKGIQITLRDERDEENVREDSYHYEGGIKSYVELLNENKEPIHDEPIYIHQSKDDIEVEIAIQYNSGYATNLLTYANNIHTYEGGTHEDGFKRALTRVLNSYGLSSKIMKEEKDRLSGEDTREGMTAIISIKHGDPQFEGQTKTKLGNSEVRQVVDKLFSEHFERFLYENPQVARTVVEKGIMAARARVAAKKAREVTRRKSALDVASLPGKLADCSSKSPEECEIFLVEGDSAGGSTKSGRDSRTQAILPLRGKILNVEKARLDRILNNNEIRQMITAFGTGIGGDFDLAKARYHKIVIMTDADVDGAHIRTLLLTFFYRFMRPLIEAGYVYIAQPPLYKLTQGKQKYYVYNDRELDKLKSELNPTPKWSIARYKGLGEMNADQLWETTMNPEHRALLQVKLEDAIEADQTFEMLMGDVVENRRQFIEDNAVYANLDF
The inhibition is the relative decrease from the control value, in per cent. With `CCNC(=O)Nc1cc(-c2nc(C3CC3)cs2)c(-c2ccc3c(c2)c(=O)c(C(=O)O)cn3[C@H](COP(=O)(O)O)CC(C)C)cn1` [Example 12, (S)-6-(4-(4-cyclopropylthiazol-2-yl)-6-(3-ethylureido)pyridin-3-yl)-1-(4-methyl-1-(phosphonooxy)pentan-2-yl)-4-oxo-1,4-dihydroquinoline-3-carboxylic acid], the inhibition at 1 µM was found to be 104%.
For `CCNC(=O)Nc1cc(-c2nc(C(F)(F)F)cs2)c(-c2cc3c(=O)c(C(=O)O)cn(CCN(C)C)c3cc2NCCN(C)C)cn1` [Example 55, 1-(2-(dimethylamino)ethyl)-7-(2-(dimethylamino)ethylamino)-6-(6-(3-ethylureido)-4-(4-(trifluoromethyl)thiazol-2-yl)pyridin-3-yl)-4-oxo-1,4-dihydroquinoline-3-carboxylic acid] the value was 100%.
The figure for `CCNC(=O)Nc1cc(-c2nc(C(F)(F)F)cs2)c(-c2cc3c(=O)c(C(=O)O)cn(CC)c3cc2OCCN(C)C)cn1` [Example 47, 7-(2-(dimethylamino)ethoxy)-1-ethyl-6-(6-(3-ethylureido)-4-(4-(trifluoromethyl)thiazol-2-yl)pyridin-3-yl)-4-oxo-1,4-dihydroquinoline-3-carboxylic acid] is 110%; for `CCNC(=O)Nc1cc(-c2nc(C(F)(F)F)cs2)c(-c2ccc3c(c2)c(=O)c(C(=O)O)cn3C[C@@H]2CCN(CCN3CCN(C)CC3)C2)cn1` [Example 36, (R)-6-(6-(3-ethylureido)-4-(4-(trifluoromethyl)thiazol-2-yl)pyridin-3-yl)-1-((1-(2-(4-methylpiperazin-1-yl)ethyl)pyrrolidin-3-yl)methyl)-4-oxo-1,4-dihydroquinoline-3-carboxylic acid] it is 112%.
The figure for `CCNC(=O)Nc1cc(-c2nc(C(F)(F)F)cs2)c(-c2ccc3c(c2)c(=O)c(C(=O)O)cn3C[C@H]2CCN(CCN3CCN(C)CC3)C2)cn1` [Example 37, (S)-6-(6-(3-ethylureido)-4-(4-(trifluoromethyl)thiazol-2-yl)pyridin-3-yl)-1-((1-(2-(4-methylpiperazin-1-yl)ethyl)pyrrolidin-3-yl)methyl)-4-oxo-1,4-dihydroquinoline-3-carboxylic acid] is 100%; for `CCNC(=O)Nc1cc(-c2nc(C(F)(F)F)cs2)c(-c2ccc3c(c2)c(=O)c(C(=O)N(C)C)cn3CCN(C)C)cn1` [Example 29, 1-[2-(Dimethylamino)ethyl]-6-{6-[(ethylcarbamoyl)amino]-4-[4-(trifluoromethyl)-1,3-thiazol-2-yl]pyridin-3-yl}-N,N-dimethyl-4-oxo-1,4-dihydroquinoline-3-carboxamide] it is 93%; for `CCNC(=O)Nc1cc(-c2nc(C(F)(F)F)cs2)c(-c2ccc3c(c2)c(=O)c(C(=O)O)cn3CC(C)N2CCOCC2)cn1` (stereo not shown) [Example 56, 6-(6-(3-Ethylureido)-4-(4-(trifluoromethyl)thiazol-2-yl)pyridin-3-yl)-1-(2-morpholinopropyl)-4-oxo-1,4-dihydroquinoline-3-carboxylic acid] it is 101%.
In the case of `CCNC(=O)Nc1cc(-c2nc(C(F)(F)F)cs2)c(-c2ccc3c(=O)c(C(=O)NCCCOP(=O)(O)O)cn(CC)c3c2)cn1` [Example 14, 3-{[(1-ethyl-7-{6-[(ethylcarbamoyl)amino]-4-[4-(trifluoromethyl)-1,3-thiazol-2-yl]pyridin-3-yl}-4-oxo-1,4-dihydroquinolin-3-yl)carbonyl]amino}propyl dihydrogen phosphate], the inhibition at 1 µM was determined as 97%.
The figure for `CCNC(=O)Nc1cc(-c2nc(C(F)(F)F)cs2)c(-c2cc3c(=O)c(C(=O)O)cn([C@H](CO)C(C)C)c3cc2OC)cn1` [Example 28, 6-(6-(3-ethylureido)-4-(4-(trifluoromethyl)thiazol-2-yl)pyridin-3-yl)-1-((S)-1-hydroxy-3-methylbutan-2-yl)-7-methoxy-4-oxo-1,4-dihydroquinoline-3-carboxylic acid] is 104%; for `CCNC(=O)Nc1cc(-c2nc(C(F)(F)F)cs2)c(-c2cc3c(=O)c(C(=O)O)cn(CCN(C)C)c3cc2F)cn1` [Example 20, 1-(2-(dimethylamino)ethyl)-6-(6-(3-ethylureido)-4-(4-(trifluoromethyl)thiazol-2-yl)pyridin-3-yl)-7-fluoro-4-oxo-1,4-dihydroquinoline-3-carboxylic acid] it is 106%.
